Data on two compounds can be found in ChEMBL document CHEMBL1250527, “Chalcone glycosides isolated from aerial parts of Brassica rapa L. 'hidabeni' suppress antigen-stimulated degranulation in rat basophilic leukemia RBL-2H3 cells” (Bioorg Med Chem, 2010).

Each structure is given as a SMILES string. Calls of active or inactive are those of the source. The rule behind the calls is not given here.

For test [1], the system named is RBL-2H3. As to the kind of experiment: Antiallergic activity against antigen-IgE-mediated degranulation in rat RBL2H3 cells assessed as inhibition of DNP-BSA-induced intracellular pathway at 50 uM after 30 mins. It counts as functional, cell-based.
The test system of test [2] is RBL-2H3. Put plainly: Antiallergic activity against antigen-IgE-mediated degranulation in rat RBL2H3 cells assessed as inhibition of translocation of cytosolic subunit of NADPH oxidase by immunofluorescence technique. Type of test: functional, cell-based.
Test [3] concerns RBL-2H3. Put plainly: Antioxidant activity […] assessed as DPPH radical scavenging activity. It counts as functional. Background: The DPPH test is a chemical assay of radical scavenging.
In test [4] the test system is RBL-2H3. Put plainly: Inhibition of NOX-mediated calcium in rat RBL2H3 cells mobilization assessed as antigen-IgE-mediated degranulation. Type of test: cell-based.
Test [5] concerns RBL-2H3. Put plainly: Antiallergic activity against antigen-IgE-mediated degranulation in rat RBL2H3 cells assessed as inhibition of DNP-BSA-induced beta-hexosaminidase release at 10 to 100 uM. It counts as functional, cell-based.
Test [6] concerns RBL-2H3. As to the kind of experiment: Antiallergic activity against antigen-IgE-mediated degranulation in rat RBL2H3 cells assessed as reduction in DNP-BSA-induced intracellular calcium level at 50 uM after 30 mins. Type of test: functional, cell-based. On the technique in general: A change in cytosolic calcium serves as a functional read-out for many receptors and channels.
Test [7] relates to RBL-2H3. Put plainly: Antiallergic activity against antigen-IgE-mediated degranulation in rat RBL2H3 cells assessed as reduction in DNP-BSA-induced ROS production at 50 uM after 30 mins. Type of test: functional, cell-based.
Test [8] concerns RBL-2H3. As to the kind of experiment: Antiallergic activity against antigen-IgE-mediated degranulation in rat RBL2H3 cells assessed as inhibition of translocation of p47phox cytosolic subunit of NADPH oxidase by immunofluorescence technique. Type of test: functional, cell-based.

For `COc1ccc(/C=C/C(=O)c2ccc(O[C@@H]3O[C@H](CO)[C@@H](O)[C@H](O)[C@H]3O)c(OC)c2)cc1`, the outcome with RBL-2H3 [1], with RBL-2H3 [2], in the test with RBL-2H3 [5], in the test on RBL-2H3 [6], in the test with RBL-2H3 [7] and in the test on RBL-2H3 [8] was Active. Besides, the outcome in the test on RBL-2H3 [3] was inactive. In addition, in the test on RBL-2H3 [4], the inhibition entry is “Active”.

With `COc1cc(C(=O)/C=C/c2ccc(O)cc2)ccc1O[C@@H]1O[C@H](CO)[C@@H](O)[C@H](O)[C@H]1O`, the result in the test on RBL-2H3 [1], with RBL-2H3 [2], in the test on RBL-2H3 [5], with RBL-2H3 [6], in the test on RBL-2H3 [7] and in the test on RBL-2H3 [8] was Active. Besides, in the test on RBL-2H3 [3], the outcome was inactive. The inhibition entry with RBL-2H3 [4] was “Active”.
